Experimental data as given in EP0731697B1, “SSI TYRPHOSTINS AND PHARMACEUTICAL COMPOSITIONS” (priority 1993, dated 1995).
Where two headings read alike, the source gives them in different places.

Experiments:
[1] = tested on: TNF-α; test: LPS induced increase in serum TNF-α levels in mice; type: in vivo; details: for serum TNF-α levels: 400 ug/mouse i.p. 2 hrs prior to LPS, bled after 2 hours
Description: TNF-α was implicated to mediate many of the toxic effect of LPS. For example, the effect of SSI 3 on serum TNF-α levels in mice which had been treated with LPS was investigated. LPS induced a rapid increase in serum TNF-α levels. […] […] The bioassay gave somewhat higher levels compared to the ELISA. This finding may indicate that the serum from LPS-treated mice contained in addition to TNF-α, other cytotoxic factors.
The amount of TNF-α was quantitated by assessing the extent of killing of the TNF-α sensitive cell line (A9) essentially as described by Ruff and Gilford, G. E. J. Immunol. 125, 1671-1677, (1980). Briefly, mouse A9 fibroblasts were plated in 96-well flat-bottom micro-titer plates at 30,000 cells /0.1 ml to establish a dense monolayer. After incubation for 24 hr at 37 C in a humidified 5% CO2 atmosphere, cycloheximide was added to a final concentration of 50 ug/ml and 100 ul of serially diluted test samples were added to the wells. After incubation for additional 18 hr the supernatants were carefully aspirated, the monolayer were washed twice with PBS and 200 ul of neutral red solution (0.02%) was added. After incubation for 2 hr, cells were washed and the dye that had been absorbed by the live cells was extracted using 200 ul of 50% ethanol. The concentration of the dye was determined by an ELISA autoreader using a 550 nm filter. Murine TNF-α ELISA kit from ENDOGEN Inc., was used for quancitation of murine TNF-α.

[2] = tested on: murine peritoneal macrophages; test: NO2- production by periodate-activated murine peritoneal macrophages; type: cell-based
Description: Nitrite (NO2-) levels were determined in supernatants at the time indicated, as described herein. (Table 5) Values are expressed as means of triplicate cultures. […] Two additional experiments yielded similar results.
NO2- the product of NO oxidation is used to determine NO produced. Nitrite concentration in supernatants of macrophages was measured by a microplate assay method. 100 ul aliquots of supernatants were incubated with an equal volume of Griess reagent (1% sulfanilamide/O.1% naphthylethylene diamine dihydrochloride/2.5% H3PO4) at room temperature for 10 min. The absorbance at 550nm was determined in a microplate reader. Sodium nitrite was used as a standard.
Mice were injected i.p. with 1 ml sodium periodate (5mM). Three to 4 days later, macrophages were washed from the peritoneal cavity with PBS. After centrifugation at 170g for 10 min at […], the cell pellet was resuspended in RPMI 1640 containing 10% heat-inactivated new born calf serum. Adherent macrophage monolayers were obtained by plating the cells in 96-well plastic trays at 4x10^5 cells/well for 2 hr at 37°C in 5% CO2/air. Nonadherent cells were removed by suction and complete medium was added. […]

[3] = tested on: mice; test: TNF-α induced lethal toxicity in actinomycin D treated mice; type: in vivo; details: actinimycin D:TNF 20 to 2.5 and 15 to 1.0, SSI 3, 400 mg/mouse i.p. 2 hr prior to TNF, 5 mice
Description: The effect of SSI 3 on lethal toxicity in mice induced by TNF-α was investigated. Mice are relatively resistant to TNF-α, when applied as a single agent. Pretreatment of mice with actinomycin D renders them extremely sensitive to TNF. (Wallach et al., 140 J. Immun. 2994, 1988). SSI 3 delayed TNF-α induced lethal toxicity in actinomycin D treated mice by approximately 15 hours at two ratios of actinimycin D:TNF (20 to 2.5 and 15 to 1.0). Mice were injected, i.p., with TNF at 0 time. SSI 3, […]/mouse was administered (i.p.) 2 hr, and actinomycin D (ACT.D) was given (i.p.) 30 min prior to TNF injection. Each experimental group contained 5 mice. Injection of actinomycin D alone causes death in 2 out of 5 animals after 120 hours and 3 out of 5 after 144 hours.

[4] = tested on: granulocytes; test: LPS-induced granulocyte accumulation in lungs and blood leukocyte changes; type: in vivo, Mouse
Description: As shown, tyrphostins exert a dramatic protective effect against LPS-induced lethal toxicity. Of the effects studied, only LPS-induced accumulation of granulocytes in the lungs and alteration in blood lymphocyte and granulocytes were not affected by SSI 3. […] The indication is therefore that tyrphostins are effective in preventing septic shock following Gram-negative sepsis, experimentally or clinically.
Mouse blood leukocyte count and differential analysis were done using Cell-Dyn 1600, Hematology Analyzer (Sequoia Turner Corporation, U.S.A).

[5] = tested on: mice
[6] = tested on: Murine fibroblastic cells (A9)
Description: Tyrphostins at different concentration were added 2 hr prior to TNF. After 24 hrs cells viability was determined by vital staining using neutral red.
Recombinant human TNFα is added to a mouse fibroblastic cell line (A9), cultured in the presence of cyclohexamine and cell viability is monitored after 20 hours. […] The percentage of live cells was measured from 2 hours prior to administration until 4 hours after administration for a control and for TNF at concentrations of 0.2 ng/ml, 0.05 ng/ml, and 1.0 ng/ml.

[7] = target: Her-2/neu receptor (Homo sapiens, UniProt P04626); details: even at concentrations above 100 uM; cited from earlier work
[8] = tested on: TNF-α; test: LPS-induced production of TNF-α by activated murine peritoneal macrophages in vitro
Description: The amount of TNF-α was quantitated by assessing the extent of killing of the TNF-α sensitive cell line (A9) essentially as described by Ruff and Gilford, G. E. J. Immunol. […] Briefly, mouse A9 fibroblasts were plated in 96-well flat-bottom micro-titer plates at 30,000 cells /0.1 ml to establish a dense monolayer. After incubation for 24 hr at 37 C in a humidified 5% CO2 atmosphere, cycloheximide was added to a final concentration of 50 ug/ml and 100 ul of serially diluted test samples were added to the wells. After incubation for additional 18 hr the supernatants were carefully aspirated, the monolayer were washed twice with PBS and 200 ul of neutral red solution (0.02%) was added. After incubation for 2 hr, cells were washed and the dye that had been absorbed by the live cells was extracted using 200 ul of 50% ethanol. The concentration of the dye was determined by an ELISA autoreader using a 550 nm filter. Murine TNF-α ELISA kit from ENDOGEN Inc., was used for quancitation of murine TNF-α.
Mice were injected i.p. with 1 ml sodium periodate (5mM). Three to 4 days later, macrophages were washed from the peritoneal cavity with PBS. After centrifugation at 170g for 10 min at 40° C, the cell pellet was resuspended in RPMI 1640 containing 10% heat-inactivated new born calf serum. Adherent macrophage monolayers were obtained by plating the cells in 96-well plastic trays at 4x10^5 cells/well for 2 hr at 37°C in 5% CO2/air. Nonadherent cells were removed by suction and complete medium was added.

Chain of Her-2/neu receptor (P04626 23-1255): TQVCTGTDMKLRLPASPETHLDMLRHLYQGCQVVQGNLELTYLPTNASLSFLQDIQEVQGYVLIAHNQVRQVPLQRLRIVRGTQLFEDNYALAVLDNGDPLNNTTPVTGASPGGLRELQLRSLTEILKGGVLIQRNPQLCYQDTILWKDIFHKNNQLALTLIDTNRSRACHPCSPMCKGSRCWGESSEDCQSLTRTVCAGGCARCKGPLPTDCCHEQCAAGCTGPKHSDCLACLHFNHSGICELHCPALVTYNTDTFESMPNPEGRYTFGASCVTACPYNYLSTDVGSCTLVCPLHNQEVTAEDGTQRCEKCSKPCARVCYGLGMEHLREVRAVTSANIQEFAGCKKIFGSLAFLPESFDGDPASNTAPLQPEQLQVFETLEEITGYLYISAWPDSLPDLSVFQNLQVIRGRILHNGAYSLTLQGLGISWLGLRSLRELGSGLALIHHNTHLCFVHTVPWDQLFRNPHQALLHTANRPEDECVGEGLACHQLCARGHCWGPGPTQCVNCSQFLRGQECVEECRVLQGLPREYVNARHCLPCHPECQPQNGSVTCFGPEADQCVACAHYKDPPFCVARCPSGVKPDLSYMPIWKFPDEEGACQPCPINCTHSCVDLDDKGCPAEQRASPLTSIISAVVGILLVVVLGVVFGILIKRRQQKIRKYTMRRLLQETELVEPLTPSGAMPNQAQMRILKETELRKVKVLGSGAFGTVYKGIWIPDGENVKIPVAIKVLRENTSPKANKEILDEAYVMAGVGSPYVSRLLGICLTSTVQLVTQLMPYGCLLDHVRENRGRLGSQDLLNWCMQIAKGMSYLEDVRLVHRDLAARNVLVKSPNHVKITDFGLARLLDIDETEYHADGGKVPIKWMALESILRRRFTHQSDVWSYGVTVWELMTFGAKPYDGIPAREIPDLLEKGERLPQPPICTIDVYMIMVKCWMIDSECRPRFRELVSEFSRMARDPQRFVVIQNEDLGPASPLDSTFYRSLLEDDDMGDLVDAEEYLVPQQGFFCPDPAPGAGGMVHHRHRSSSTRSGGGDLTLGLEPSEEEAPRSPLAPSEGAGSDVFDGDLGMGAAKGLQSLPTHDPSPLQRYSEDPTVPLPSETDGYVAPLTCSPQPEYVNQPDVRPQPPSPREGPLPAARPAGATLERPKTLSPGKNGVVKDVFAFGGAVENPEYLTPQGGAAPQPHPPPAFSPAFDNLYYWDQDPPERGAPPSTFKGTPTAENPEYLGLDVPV

N#CC(C#N)=Cc1ccc([N+](=O)[O-])c(O)c1 [SSI 3]
serum TNF-α levels ([1]; higher of two printed values, presumably bioassay, LPS alone 14): 4 ng/mL
serum TNF-α levels ([1]; lower of two printed values, presumably ELISA, LPS alone 7): 3 ng/mL
Serum TNF-α ([1]; LPS 200 µg/mouse, AG 300 µg/mouse 2 hrs prior to LPS, 1hr, mean (two single values)): 2.8 (1.2, 4.4) ng/ml
Serum TNF-α ([1]; LPS 200 µg/mouse, AG 300 µg/mouse 2 hrs prior to LPS, 2hr, mean (two single values)): 3.6 (2.7, 4.5) ng/ml
Serum TNF-α ([1]; no LPS (-), AG 300 µg/mouse, 1hr): 16.3 ng/mL
LPS induced NO production ([2]; 50 um, added 2 hours prior to LPS, 24 hours): markedly inhibit
NO production ([2]; 50 um, from an initial level of 70 uM (no LPS), 24 hours): ~30 µM
NO production ([2]; 50 um, from an initial level of 40 (10 ug/ml of LPS), 24 hours): approximately 20 uM
NO2- production in unstimulated and LPS-stimulated periodate-activated murine macrophages ([2]; LPS (10 mg/ml)): effectively inhibited
NO2- Production by Macrophages ([2]; SSI 20 uM, LPS 10 ug, 1 DAY): 30,2 µg
NO2- Production by Macrophages ([2]; SSI 20 uM, LPS 10 ug, 2 DAY): 91 µg
NO2- Production by Macrophages ([2]; SSI 20 uM, LPS 10 ug, 3 DAY): 90,1 µg
NO2- Production by Macrophages ([2]; SSI 20 uM, no LPS, 1 DAY): 11,8 µg
NO2- Production by Macrophages ([2]; SSI 20 uM, no LPS, 2 DAY): 17,5 µg
NO2- Production by Macrophages ([2]; SSI 20 uM, no LPS, 3 DAY): 7,5 µg
NO2- Production by Macrophages ([2]; SSI 50uM, LPS 10 ug, 1 DAY): 6,1 µg
NO2- Production by Macrophages ([2]; SSI 50uM, LPS 10 ug, 2 DAY): 31,4 µg
NO2- Production by Macrophages ([2]; SSI 50uM, LPS 10 ug, 3 DAY): 19,2 µg
NO2- Production by Macrophages ([2]; SSI 50 uM, no LPS, 1 DAY): 5 µg
NO2- Production by Macrophages ([2]; SSI 50 uM, no LPS, 2 DAY): 8,6 µg
NO2- Production by Macrophages ([2]; SSI 50 uM, no LPS, 3 DAY): 4,8 µg
delay of TNF-α induced lethal toxicity [3]: approximately 15 hours
alteration in blood lymphocyte and granulocytes ([4]; LPS-induced): not affected
LPS-induced accumulation of granulocytes in the lungs ([4]; mouse, in vivo): not affected
mice survived ([5]; 200 ug/mouse, LPS 1.5 mg/mouse): 3 out of 5 mice
mice (still alive) ([5]; 12 h): 20 mice
mice (still alive) ([5]; 36 h): 18 mice
mice (still alive) ([5]; 60 h): 18 mice
blocking TNF-α induced cytotoxicity in vitro [6]: active
TNF-α induced cytotoxicity, in vitro ([6]; A9 cells, 24 hours with TNF, cyclohexamide 50 ug/ml, tyrphostins added 2 hr prior to TNF, neutral red): reduced
TNF toxicity (percentage of live cells) ([6]; SSI 3 50 uM, SSI 16 2 uM, SSI 17 2 and 10 uM, A9 cells with cyclohexamine, viability after 20 hours, TNF 0.2, 0.05 and 1.0 ng/ml): prevent TNF toxicity to different degrees
effect on Her-2/neu receptor [7]: no effect
TNF-α ([8]; LPS +): <5 pg/mL
TNF-α ([8]; LPS -): <5 pg/mL
ability to inhibit LPS-induced production of TNF-α by activated murine peritoneal macrophages in vitro ([8]; among the tyrphostins tested): most potent
